Data as given in PubChem BioAssay AID2060494 (Molecular Pharmacology Branch, DTP, NCI, 2025).

Tested on: 435261-313-R-J1-PDC complex spheroid viability
Assay: Anticancer human tumor 435261-313-R-J1-PDC patient-derived colon adenocarcinoma cell line growth inhibition [GQUAD]
Conditions: for IC50: curve of first compound; for viability, T/C: stronger effect = lower value; active means viability on the fitted dose curve at most 10% of control; inactive means the rest
Description: DNA G-quadruplex Stabilizer Agents in Combinations in Complex Spheroids
A high-throughput screen of multi-cell type tumor spheroids was designed to identify active combinations of DNA G-quadruplex stabilizer agents and targeted small molecules. Complex spheroids include a stromal component modeled by human endothelial cells (HUVEC) and fibroblasts modeled by human mesenchymal stem cells (MSCs). The concentration ranges selected for each drug and investigational agent were based upon clinically achievable concentrations if the clinical Cmax of the agent was known.
Compounds. The drugs and investigational agents: pidnarulex (CX-5461; NSC782164), APTO-253 (NSC789042), BRACO-19 (NSC847499), peposertib (NSC802822), ceralasertib (NSC780249), elimusertib (NSC800525), camonsertib (NSC841442), AZD-1390 (NSC803789), olaparib (NSC753686), talazoparib (NSC767125), ART-558 (NSC835418), sotorasib (NSC818433), MRTX-1133 (NSC836407), SN-38 (NSC673596), topotecan (NSC609699), etoposide (NSC141540), doxorubicin (NSC123127), gemcitabine (NSC613327), 5-fluorouracil (NSC19893), paclitaxel (NSC125973), vemurafenib (NSC761431), panobinostat (NSC761190), R-306465 (JNJ-16241199; NSC773264), adavosertib (NSC754352), TP-3654 (NSC805149), carboplatin (NSC241240), KSQ-4279 (NSC840948), and staurosporine (NSC755774) were obtained from the National Cancer Institute (NCI) Developmental Therapeutics Program Chemical Repository (34). The FDA-approved anticancer drug set is available from the NCI Developmental Therapeutics Program. […] The stock solutions were prepared in dimethyl sulfoxide (DMSO, Sigma-Aldrich, St. Louis, MO, cat. D2650) at 800-fold the tested concentration and stored at -70 degrees C prior to their use. All drugs and investigational agents were tested over a range starting from a high concentration at or near the clinical Cmax and decreasing in half-log increments. If the clinical Cmax for an agent had not been determined, the highest concentration tested was 10 microM.
2.3 Cell Culture. All cells were maintained in an incubator at 37 degrees C and 5% CO2 with 95% humidity. The PDC lines were cultured according to standard operating procedures established by the NCI PDMR. All PDCs were thawed and cultured in Matrigel-coated flasks prepared with a working solution of 1X Ham's F-12 nutrient mix, without supplementation (Invitrogen, cat. 11765054), 100 U/mL penicillin-streptomycin (Invitrogen, cat. 15140122), and 2.5% Matrigel (Corning Inc., cat. 354248) for the first three passages. The 857933-349-R-J2-PDC line was cultured in 6C/Colon 1B media, which includes advanced DMEM/F-12 (Thermo Fisher Scientific, cat. 12634028), 10 mM HEPES (Thermo Fisher Scientific, cat. 15630080), 1X GlutaMAX supplement (Thermo Fisher Scientific, cat. 35050061), 0.1 mg/mL primocin (InvivoGen, cat. ant-pm-2), 10% defined fetal bovine serum, heat inactivated (HyClone Laboratories Inc., cat. SH30070.03HI), 50% L-WRN conditioned media (ATCC, cat. CRL-3276), 1.25 mM N-Acetyl-L-cysteine (Sigma-Aldrich, cat. A9165), 10 mM nicotinamide (Sigma-Aldrich, cat. N0636), 1X B-27 supplement (Thermo Fisher Scientific, cat. 17504044), 1X N-2 supplement (Thermo Fisher Scientific, cat. 17502048), 10 microM Y-27632 dihydrochloride (Tocris Bioscience, cat. 1254), and 50 ng/mL human EGF recombinant protein (Thermo Fisher Scientific, cat. PHG0311). The 485176-168-R4-J1-PDC line was cultured in Panc media, which includes all 6C/Colon 1B media components plus 100 ng/mL human FGF-10 (Thermo Fisher Scientific, cat. 100-26), 500 nM SB-431542 (Selleckchem, cat. S1067), and gastrin (Tocris, cat. 3006).
[…]
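Further: spheroids exposed to the agents for seven days before readout.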
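Wherever viability, T/C is given: percent of vehicle control viability with DMSO wells as 100%.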

Cc1cccc(N(C)C(=O)C2C(O)CCN2c2nc(C)cc(C(F)(F)F)c2C#N)c1 (configuration not stated) + Cc1cnc(CNC(=O)c2c(=O)c3ccc(N4CCCN(C)CC4)nc3n3c2sc2ccccc23)cn1
> 10 µM: IC50 (second compound 0.0316 µM) | IC50 (second compound 0.1 µM) | IC50 (second compound 0.316 µM)
< 0.0316 µM: IC50 (second compound 1 µM) | IC50 (second compound 3.16 µM) | IC50 (second compound 10 µM)
inactive: viability, T/C (second compound 0.0316 µM, first compound 0.0316 µM) 72.9% | viability, T/C (second compound 0.0316 µM, first compound 0.1 µM) 76.9% | viability, T/C (second compound 0.0316 µM, first compound 0.316 µM) 73.3% | viability, T/C (second compound 0.0316 µM, first compound 1 µM) 63.7% | viability, T/C (second compound 0.0316 µM, first compound 3.16 µM) 75.8% | viability, T/C (second compound 0.0316 µM, first compound 10 µM) 81.6% | viability, T/C (second compound 0.1 µM, first compound 0.0316 µM) 59.2% | viability, T/C (second compound 0.1 µM, first compound 0.1 µM) 66% | viability, T/C (second compound 0.1 µM, first compound 0.316 µM) 52.2% | viability, T/C (second compound 0.1 µM, first compound 1 µM) 56.3% | viability, T/C (second compound 0.1 µM, first compound 3.16 µM) 61.5% | viability, T/C (second compound 0.1 µM, first compound 10 µM) 62.3% | viability, T/C (second compound 0.316 µM, first compound 0.0316 µM) 49.1% | viability, T/C (second compound 0.316 µM, first compound 0.1 µM) 52.5% | viability, T/C (second compound 0.316 µM, first compound 0.316 µM) 65.3% | viability, T/C (second compound 0.316 µM, first compound 1 µM) 51.7% | viability, T/C (second compound 0.316 µM, first compound 3.16 µM) 51.1% | viability, T/C (second compound 0.316 µM, first compound 10 µM) 53% | viability, T/C (second compound 1 µM, first compound 0.0316 µM) 42% | viability, T/C (second compound 1 µM, first compound 0.1 µM) 53% | viability, T/C (second compound 1 µM, first compound 0.316 µM) 47.9% | viability, T/C (second compound 1 µM, first compound 1 µM) 51.6% | viability, T/C (second compound 1 µM, first compound 3.16 µM) 48.6% | viability, T/C (second compound 1 µM, first compound 10 µM) 45.3% | viability, T/C (second compound 3.16 µM, first compound 0.0316 µM) 16.1% | viability, T/C (second compound 3.16 µM, first compound 0.1 µM) 21% | viability, T/C (second compound 3.16 µM, first compound 0.316 µM) 17% | viability, T/C (second compound 3.16 µM, first compound 1 µM) 17.3% | viability, T/C (second compound 3.16 µM, first compound 3.16 µM) 12.8% | viability, T/C (second compound 3.16 µM, first compound 10 µM) 9.97%
active: viability, T/C (second compound 10 µM, first compound 0.0316 µM) 0.21% | viability, T/C (second compound 10 µM, first compound 0.1 µM) 5.23% | viability, T/C (second compound 10 µM, first compound 0.316 µM) 6.24% | viability, T/C (second compound 10 µM, first compound 1 µM) 0.26% | viability, T/C (second compound 10 µM, first compound 3.16 µM) 0.33% | viability, T/C (second compound 10 µM, first compound 10 µM) 0.25%
